From US9814699B2, “Chemical compounds” (Janssen Pharmaceuticals, Inc., priority 2009, dated 2017)

Assays:
[1] = tested on: HCV genotype 1a subgenomic replicon; assay: HCV replicon assay, genotype 1a subgenomic replicon (luciferase); assay type: cell-based; settings: Hepatitis C virus; genotype 1a replicon stable cell line, luciferase activity measured 48 hours later; read-out: Replicon 1A pEC50 (converted)
Procedure: (§1) Protocol for Testing and Data Analysis of Compounds in the HCV Replicon Assay
(§2) Compounds were assayed for activity against HCV using the genotype 1a and 1b subgenomic replicon model systems. Stable cell lines bearing the genotype 1a and 1b replicons were used for screening of compounds. Both replicons are bicistronic and contain the firefly luciferase gene. The ET cell line is stably transfected with RNA transcripts harboring a I389luc-ubi-neo/NS3-3′/ET replicon with firefly luciferase-ubiquitin-neomycin phosphotransferase fusion protein and EMCV-IRES driven NS3-5B polyprotein containing the cell culture adaptive mutations (E1202G; T1280I; K1846T) (Krieger at al, 2001 and unpublished). The genotype 1a replicon is a stable cell line licensed from Apath LLC, modified to contain the firefly luciferase gene. The cells were grown in DMEM, supplemented with 10% fetal calf serum, 2 mM Glutamine, Penicillin (100 IU/mL)/Streptomycin (100 μg/mL), 1× nonessential amino acids, and 250-500 μg/mL G418 (“Geneticin”). They were all available through Life Technologies (Bethesda, Md.). The cells were plated at 5×10^3 cells/well in 384 well plates containing compounds. The final concentration of compounds ranged between 0.03 pM to 50 μm and the final DMSO concentration of 0.5-1%.
(§3) Luciferase activity was measured 48 hours later by adding a Steady glo reagent (Promega, Madison, Wis.). Percent inhibition of replication data was plotted relative to no compound control. Under the same condition, cytotoxicity of the compounds was determined using cell titer glo (Promega, Madison, Ws). EC50s were determined from an 11 point dose response curve using 3-4-fold serial dilution for each compound, which spans a concentration range >1000 fold. The level of inhibition for each compound was determined with Activity Base or with BioAssay plus the Excel XC50 module. Percent inhibition was determined with the following equation where the cross-talk corrected value is the value from the test well, the compound positive control mean is the average value of the wells with no compound present, and the DMSO negative control mean is the average value of the wells with DMSO but no cells present.
(§4) [formula] These normalized values are exported to EC50 where they are plotted against the molar compound concentrations using the standard four parameter logistic equation: […]

[2] = tested on: HCV genotype 1b subgenomic replicon; assay: HCV replicon assay, genotype 1b subgenomic replicon (ET cell line, luciferase); assay type: cell-based; settings: Hepatitis C virus; genotype 1b replicon ET cell line, luciferase activity measured 48 hours later; read-out: Replicon 1B pEC50 (converted)
Procedure: as §1, §2, §3, §4

SMILES | EC50 [1] [nM] | EC50 [2] [nM]
COC(=O)N[C@H](C(=O)N1CC2(CCOCC2)CC1c1ncc(-c2ccc(-c3ccc(-c4cnc([C@@H]5CCCN5C(=O)[C@@H](NC(=O)OC)C(C)C)[nH]4)cc3)cc2)[nH]1)C(C)C (stereo partly drawn) [Example 15, methyl [(1S)-2-methyl-1-({(2S)-2-[4-(4′-{2-[2-((2S)-3-methyl-2-{[(methyloxy)carbonyl]amino}butanoyl)-8-oxa-2-azaspiro[4.5]dec-3-yl]-1H-imidazol-4-yl}-4-biphenylyl)-1H-imidazol-2-yl]-1-pyrrolidinyl}carbonyl)propyl]carbamate] | 0.0631 | 0.0158
COC(=O)N[C@H](C(=O)N1CC2(CCS(=O)(=O)CC2)CC1c1ncc(-c2ccc(-c3ccc(-c4cnc([C@@H]5CCCN5C(=O)[C@@H](NC(=O)OC)C(C)C)[nH]4)cc3)cc2)[nH]1)C(C)C (stereo partly drawn) [Example 16, methyl [(1S)-2-methyl-1-({(2S)-2-[4-(4′-{2-[2-((2S)-3-methyl-2-{[(methyloxy)carbonyl]amino}butanoyl)-8,8-dioxido-8-thia-2-azaspiro[4.5]dec-3-yl]-1H-imidazol-4-yl}-4-biphenylyl)-1H-imidazol-2-yl]-1-pyrrolidinyl}carbonyl)propyl]carbamate] | 0.398 | 0.0398
COC(=O)N[C@H](C(=O)N1CCC[C@H]1c1ncc(-c2ccc(-c3ccc(-c4cnc([C@@H]5CC6(CCC(F)(F)CC6)CN5C(=O)[C@@H](NC(=O)OC)C(C)C)[nH]4)cc3)cc2)[nH]1)C(C)C [Example 17, methyl [(1S)-1-({(2S)-2-[4-(4′-{2-[8,8-difluoro-2-((2S)-3-methyl-2-{[(methyloxy)carbonyl]amino}butanoyl)-2-azaspiro[4.5]dec-3-yl]-1H-imidazol-4-yl}-4-biphenylyl)-1H-imidazol-2-yl]-1-pyrrolidinyl}carbonyl)-2-methylpropyl]carbamate] | 0.0398 | 0.00251
COC(=O)N[C@H](C(=O)N1CC2(CCOCC2)C[C@H]1c1nc(-c2ccc(-c3ccc(-c4cnc([C@@H]5CC6(CCOCC6)CN5C(=O)[C@@H](NC(=O)OC)C(C)C)[nH]4)cc3)cc2)c[nH]1)C(C)C [Example 18, dimethyl (4,4′-biphenyldiylbis{1H-imidazole-4,2-diyl(3S)-8-oxa-2-azaspiro[4.5]decane-3,2-diyl[(2S)-3-methyl-1-oxo-1,2-butanediyl]})biscarbamate] | 0.02 | 0.0126
COC(=O)N[C@H](C(=O)N1CC2(CCN(C(=O)OC(C)(C)C)CC2)CC1c1ncc(-c2ccc(-c3ccc(-c4cnc([C@@H]5CCCN5C(=O)[C@@H](NC(=O)OC)C(C)C)[nH]4)cc3)cc2)[nH]1)C(C)C (stereo partly drawn) [Example 19, 1,1-dimethylethyl 2-{N-[(methyloxy)carbonyl]-L-valyl}-3-(4-{4′-[2-((2S)-1-{N-[(methyloxy)carbonyl]-L-valyl}-2-pyrrolidinyl)-1H-imidazol-4-yl]-4-biphenylyl}-1H-imidazol-2-yl)-2,8-diazaspiro[4.5]decane-8-carboxylate] | 10 | 0.0398
COC(=O)N[C@H](C(=O)N1CC2(CCNCC2)CC1c1ncc(-c2ccc(-c3ccc(-c4cnc([C@@H]5CCCN5C(=O)[C@@H](NC(=O)OC)C(C)C)[nH]4)cc3)cc2)[nH]1)C(C)C (stereo partly drawn) [Example 20, methyl [(1S)-2-methyl-1-({(2S)-2-[4-(4′-{2-[2-((2S)-3-methyl-2-{[(methyloxy)carbonyl]amino}butanoyl)-2,8-diazaspiro[4.5]dec-3-yl]-1H-imidazol-4-yl}-4-biphenylyl)-1H-imidazol-2-yl]-1-pyrrolidinyl}carbonyl)propyl]carbamate] | > 31.6 | 1.58
COC(=O)N[C@H](C(=O)N1CC2(CCN(C(C)=O)CC2)CC1c1ncc(-c2ccc(-c3ccc(-c4cnc([C@@H]5CCCN5C(=O)[C@@H](NC(=O)OC)C(C)C)[nH]4)cc3)cc2)[nH]1)C(C)C (stereo partly drawn) [Example 21, methyl [(1S)-1-({(2S)-2-[4-(4′-{2-[8-acetyl-2-((2S)-3-methyl-2-{[(methyloxy)carbonyl]amino}butanoyl)-2,8-diazaspiro[4.5]dec-3-yl]-1H-imidazol-4-yl}-4-biphenylyl)-1H-imidazol-2-yl]-1-pyrrolidinyl}carbonyl)-2-methylpropyl]carbamate] | 10 | 0.2
COC(=O)N[C@H](C(=O)N1CC2(CCN(C(=O)OC)CC2)CC1c1ncc(-c2ccc(-c3ccc(-c4cnc([C@@H]5CCCN5C(=O)[C@@H](NC(=O)OC)C(C)C)[nH]4)cc3)cc2)[nH]1)C(C)C (stereo partly drawn) [Example 22, methyl 2-{N-[(methyloxy)carbonyl]-L-valyl}-3-(4-{4′-[2-((2S)-1-{N-[(methyloxy)carbonyl]-L-valyl}-2-pyrrolidinyl)-1H-imidazol-4-yl]-4-biphenylyl}-1H-imidazol-2-yl)-2,8-diazaspiro[4.5]decane-8-carboxylate] | 0.794 | 0.0158
COC(=O)N[C@H](C(=O)N1CC2(CC1c1ncc(-c3ccc(-c4ccc(-c5cnc([C@@H]6CCCN6C(=O)[C@@H](NC(=O)OC)C(C)C)[nH]5)cc4)cc3)[nH]1)CN(C(=O)OC(C)(C)C)C2)C(C)C (stereo partly drawn) [Example 23, 1,1-dimethylethyl 6-{N-[(methyloxy)carbonyl]-L-valyl}-7-(4-{4′-[2-((2S)-1-{N-[(methyloxy)carbonyl]-L-valyl}-2-pyrrolidinyl)-1H-imidazol-4-yl]-4-biphenylyl}-1H-imidazol-2-yl)-2,6-diazaspiro[3.4]octane-2-carboxylate] | 1.26 | 0.01
COC(=O)N[C@H](C(=O)N1CC2(CNC2)CC1c1ncc(-c2ccc(-c3ccc(-c4cnc([C@@H]5CCCN5C(=O)[C@@H](NC(=O)OC)C(C)C)[nH]4)cc3)cc2)[nH]1)C(C)C (stereo partly drawn) [Example 24, methyl [(1S)-2-methyl-1-({(2S)-2-[4-(4′-{2-[6-((2S)-3-methyl-2-{[(methyloxy)carbonyl]amino}butanoyl)-2,6-diazaspiro[3.4]oct-7-yl]-1H-imidazol-4-yl}-4-biphenylyl)-1H-imidazol-2-yl]-1-pyrrolidinyl}carbonyl)propyl]carbamate] | 3.16 | 0.126
COC(=O)N[C@H](C(=O)N1CC2(CC1c1ncc(-c3ccc(-c4ccc(-c5cnc([C@@H]6CCCN6C(=O)[C@@H](NC(=O)OC)C(C)C)[nH]5)cc4)cc3)[nH]1)CN(C(C)=O)C2)C(C)C (stereo partly drawn) [Example 25, methyl [(1S)-1-({(2S)-2-[4-(4′-{2-[2-acetyl-6-((2S)-3-methyl-2-{[(methyloxy)carbonyl]amino}butanoyl)-2,6-diazaspiro[3.4]oct-7-yl]-1H-imidazol-4-yl}-4-biphenylyl)-1H-imidazol-2-yl]-1-pyrrolidinyl}carbonyl)-2-methylpropyl]carbamate] | 1.26 | 0.158
COC(=O)N[C@H](C(=O)N1CC2(CC1c1ncc(-c3ccc(-c4ccc(-c5cnc([C@@H]6CCCN6C(=O)[C@@H](NC(=O)OC)C(C)C)[nH]5)cc4)cc3)[nH]1)CN(C(=O)OC)C2)C(C)C (stereo partly drawn) [Example 26, methyl 6-{N-[(methyloxy)carbonyl]-L-valyl}-7-(4-{4′-[2-((2S)-{N-[(methyloxy)carbonyl]-L-valyl}-2-pyrrolidinyl)-1H-imidazol-4-yl]-4-biphenylyl}-1H-imidazol-2-yl)-2,6-diazaspiro[3.4]octane-2-carboxylate] | 2 | 0.0501
